{"source": "paper PMC12406195", "about": "“Understanding the Modes of Action of β‑Ketoiminato Iridium(III) Complexes in Cancer Cells” (Inorganic Chemistry, 2025)", "key": {"MDA-MB-231 cells": {"system": "MDA-MB-231 cells", "assay": "Chemosensitivity (MTT cell viability) assay, MDA-MB-231", "type": "cell-based, human", "conditions": "for IC50: n = 9; for Selectivity index (SI): MDA-MB-231 compared to ARPE-19, 96 h", "description": "(§1) All cytotoxicity assays were conducted using human cell lines: breast adenocarcinomas (MDA-MB-231 and MCF-7), pancreatic carcinoma (MIA PaCa-2) and non-cancerous epithelial retinal (ARPE-19) cell lines. All cell lines were routinely maintained as monolayer cultures in appropriate complete media:\n(§2) MCF-7, MIA PaCa-2 and ARPE-19 in high glucose DMEM and MDA-MB-231 in RPMI-1640, and both media were supplemented with 10% FBS, 1 mM sodium pyruvate, 2 mM L-glutamine, and 1% pen-strep. All cells were initially grown in T-25 or T-75 flasks at 37 °C and 5% CO2. Before chemosensitivity studies, cell monolayers were passaged using trypsin-EDTA (0.05%) and diluted to a concentration of 1 x 10^4 cells/mL (or 4 x 10^4 cells mL for 24 h assays). All assays were conducted in 96-well plates, in which 100 µL of the cell suspension was added for 24 h at 37 °C and 5% CO2, and then 100 µL of compound/medium dilutions for a further 96 h (or 24 h). All compound stocks were made using sterile DMSO at 100 mM before dilution, and a maximum of 0.1% DMSO was used in each assay. After incubation, 3-(4,5-dimethylthiazol-2-yl)-2,5-diphenyltetrazolium bromide (20 µL, 5 mg/mL in PBS) was added to each well and incubated for 3 h at 37°C and 5% CO2. All solutions were then aspirated, DMSO (150 µL) added to each well, gently mixed, and the absorbance was measured at 540 nm using a ClarioStar spectrophotometer microplate reader. Results were plotted on a logarithmic scale, and the half maximal inhibitory concentration (IC50) was determined from a triplicate of triplicate repeats (n = 9) and reported as an IC 50 ± Standard Deviation (SD)."}, "MIA PaCa-2 cells": {"system": "MIA PaCa-2 cells", "assay": "Chemosensitivity (MTT cell viability) assay, MIA PaCa-2", "type": "cell-based, human", "conditions": "for IC50: MIA PaCa-2, 96 h, n = 9; for Selectivity index (SI): MIA PaCa-2 compared to ARPE-19, 96 h", "description": "as §1, §2"}, "MCF-7 cells": {"system": "MCF-7 cells", "assay": "Chemosensitivity (MTT cell viability) assay, MCF-7", "type": "cell-based, human", "conditions": "for IC50: MCF-7, 96 h, n = 9; for Selectivity index (SI): MCF-7 compared to ARPE-19, 96 h", "description": "as §1, §2"}, "ARPE-19 cells": {"system": "ARPE-19 cells", "assay": "Chemosensitivity (MTT cell viability) assay, noncancerous ARPE-19", "type": "cell-based, human", "conditions": "ARPE-19 noncancerous, 96 h, n = 9", "description": "The cytotoxicity of the compounds against the cancer cell lines was also compared to the noncancerous retinal epithelial cell line, ARPE-19, to determine the possibility of cancer cell selectivity. […]\nas §1, §2"}, "plasmid DNA": {"system": "plasmid DNA", "assay": "Plasmid DNA interaction, agarose gel electrophoresis", "type": "biochemical", "conditions": "200 ng plasmid DNA, 100–400 μM, cell-free", "description": "The ability of compounds to intercalate, nick, or cleave DNA can be evaluated using gel electrophoresis with plasmid DNA. In this study, in vitro plasmid DNA assays were performed by incubating 200 ng of plasmid DNA with different concentrations (100–400 μM) of 1 or CDDP, which served as a positive control. The DNA fragments were then separated via agarose gel electrophoresis, and potential changes in DNA migration patterns were analyzed.\n5 Plasmid DNA (200 ng) was incubated with varying concentrations (100, 200, and 400 μM) of compound 1 or CDDP for 24 h at room temperature. The DNA was then separated via agarose gel electrophoresis, and the intensity of supercoiled and nicked circular DNA bands was quantified and expressed as mean ± SEM (n = 4).\nMDA-MB-231 cells at 4000 cells/well were seeded into a black clear -bottom 96-well plate using phenol-red free complete RMPI medium, and incubated for 48 h. […] Fluorescence images were obtained using a Zeiss Observer 7 inverted microscope at excitation at 488 nm and emission at 509 […]\nPlasmid DNA (200 ng, pBOS -H2B-GFP, BD Biosciences) was incubated overnight at room temperature with 1 or CDDP at concentrations between 100 and 400 μM in double -distilled H2O (20 μL total volume). […] The experiment was conducted in two biological replicates, and the band intensities were quantified and analyzed using ImageJ software. […]"}, "[1]": {"assay": "Stability by UV/vis spectroscopy in fully supplemented phenol-red free media", "type": "physicochemical", "conditions": "37 °C, monitored over 96 h", "description": "d6/D2O mixture (70/30) spiked with 0.1 M NaCl for 96 hours, before HR -MS was conducted; these are […]\nStability Assay by NMR Spectroscopy\nCompounds 1-4 (3-4 mg) were dissolved in a 500 µL mixture of 90% DMSO -d6 and 10% D2O. 1H and 31P NMR spectra were obtained by a Bruker Avance 500 MHz at room temperature and multiple time points over 4 days. A solution of sodium chloride in D2O (26.3 g/L, 143 µL) was added to the same samples (final concentration 0.1 M NaCl in 70 % DMSO-d6 and 30% D2O) to mimic the chloride concentration in blood. 1H and 31P NMR spectra were obtained by a Bruker Avance 500 MHz at room temperature and multiple time points over 4 days.\nStability Assays by UV/vis Spectroscopy\nThe compounds were dissolved in DMSO and added to fully supplemented DMEM phenol-red free media (see Cell Viability Assays section for all additives) under sterile conditions to obtain a final concentration of 60 µg/mL. UV/vis spectra were obtained every 30 min for 96 h at 37 °C.\nas §1\nMCF-7, MIA PaCa-2 and ARPE-19 in high glucose DMEM and MDA-MB-231 in RPMI-1640, and both media were supplemented with 10% FBS, 1 mM sodium pyruvate, 2 mM L-glutamine, and 1% pen-strep. All cells were initially grown in T-25 or T-75 flasks at 37 °C and 5% CO2. […] All solutions were then aspirated, DMSO (150 µL) added to each well, gently mixed, and the absorbance was measured at 540 nm using a ClarioStar spectrophotometer microplate reader. Results were plotted on a logarithmic scale, and the half maximal inhibitory concentration (IC50) was determined from a triplicate of triplicate repeats (n = 9) and reported as an IC 50 ± Standard Deviation (SD)."}}, "data": [{"molecule": "N.N.O=C([O-])C1(C(=O)[O-])CCC1.[Pt+2]", "note": "[CARB, carboplatin, reference compound]", "values": [{"measurement": "IC50", "setting": "MDA-MB-231 cells; MDA-MB-231, 24 h", "value": "> 100", "unit": "µM"}, {"measurement": "IC50", "setting": "MDA-MB-231 cells; MDA-MB-231, 96 h", "value": "16 ± 1", "unit": "µM"}, {"measurement": "Selectivity index (SI)", "setting": "MDA-MB-231 cells", "value": "> 6.3"}, {"measurement": "IC50", "setting": "MIA PaCa-2 cells", "value": "40 ± 4", "unit": "µM"}, {"measurement": "Selectivity index (SI)", "setting": "MIA PaCa-2 cells", "value": "> 2.5"}, {"measurement": "IC50", "setting": "MCF-7 cells", "value": "40 ± 1", "unit": "µM"}, {"measurement": "Selectivity index (SI)", "setting": "MCF-7 cells", "value": "> 2.5"}, {"measurement": "IC50", "setting": "ARPE-19 cells", "value": "> 100", "unit": "µM"}]}, {"molecule": "[NH2][Pt]([NH2])([Cl])[Cl]", "note": "[CDDP, cisplatin, reference compound]", "values": [{"measurement": "IC50", "setting": "MDA-MB-231 cells; MDA-MB-231, 24 h", "value": "> 100", "unit": "µM"}, {"measurement": "IC50", "setting": "MDA-MB-231 cells; MDA-MB-231, 96 h", "value": "2.2 ± 0.3", "unit": "µM"}, {"measurement": "Selectivity index (SI)", "setting": "MDA-MB-231 cells", "value": 2.7}, {"measurement": "IC50", "setting": "MIA PaCa-2 cells", "value": "3.9 ± 0.6", "unit": "µM"}, {"measurement": "Selectivity index (SI)", "setting": "MIA PaCa-2 cells", "value": 1.5}, {"measurement": "Plasmid DNA migration", "setting": "plasmid DNA", "value": "faster DNA migration"}, {"measurement": "IC50", "setting": "MCF-7 cells", "value": "6.1 ± 0.9", "unit": "µM"}, {"measurement": "Selectivity index (SI)", "setting": "MCF-7 cells", "value": 1.0}, {"measurement": "IC50", "setting": "ARPE-19 cells", "value": "6 ± 0.2", "unit": "µM"}]}, {"molecule": "[Cp*Ir(C16H12Cl2NO)(PTA)](PF6) [Compound 2]", "values": [{"measurement": "IC50", "setting": "MDA-MB-231 cells; MDA-MB-231, 24 h", "value": "21 ± 1", "unit": "µM"}, {"measurement": "IC50", "setting": "MDA-MB-231 cells; MDA-MB-231, 96 h", "value": "5.4 ± 0.3", "unit": "µM"}, {"measurement": "Selectivity index (SI)", "setting": "MDA-MB-231 cells", "value": 3.0}, {"measurement": "IC50", "setting": "MIA PaCa-2 cells", "value": "14.9 ± 0.7", "unit": "µM"}, {"measurement": "Selectivity index (SI)", "setting": "MIA PaCa-2 cells", "value": 1.1}, {"measurement": "IC50", "setting": "MCF-7 cells", "value": "45.1 ± 0.8", "unit": "µM"}, {"measurement": "Selectivity index (SI)", "setting": "MCF-7 cells", "value": 0.4}, {"measurement": "Time to full decomposition (no further changes in UV/vis spectra)", "setting": "[1]", "value": 64, "unit": "h"}, {"measurement": "IC50", "setting": "ARPE-19 cells", "value": "16 ± 1", "unit": "µM"}]}, {"molecule": "[Cp*Ir(C16H13BrNO)(PTA)](PF6) [Compound 3]", "values": [{"measurement": "IC50", "setting": "MDA-MB-231 cells; MDA-MB-231, 24 h", "value": "22 ± 1", "unit": "µM"}, {"measurement": "IC50", "setting": "MDA-MB-231 cells; MDA-MB-231, 96 h", "value": "4.8 ± 0.5", "unit": "µM"}, {"measurement": "Selectivity index (SI)", "setting": "MDA-MB-231 cells", "value": 3.0}, {"measurement": "IC50", "setting": "MIA PaCa-2 cells", "value": "11.2 ± 0.1", "unit": "µM"}, {"measurement": "Selectivity index (SI)", "setting": "MIA PaCa-2 cells", "value": 1.3}, {"measurement": "IC50", "setting": "MCF-7 cells", "value": "32.4 ± 0.3", "unit": "µM"}, {"measurement": "Selectivity index (SI)", "setting": "MCF-7 cells", "value": 0.5}, {"measurement": "Time to full decomposition (no further changes in UV/vis spectra)", "setting": "[1]", "value": "over 96 h"}, {"measurement": "IC50", "setting": "ARPE-19 cells", "value": "14.6 ± 0.8", "unit": "µM"}]}, {"molecule": "[Cp*Ir(C18H18NO2)(PTA)](PF6) [Compound 4]", "values": [{"measurement": "IC50", "setting": "MDA-MB-231 cells; MDA-MB-231, 24 h", "value": "36 ± 1", "unit": "µM"}, {"measurement": "IC50", "setting": "MDA-MB-231 cells; MDA-MB-231, 96 h", "value": "4.1 ± 0.5", "unit": "µM"}, {"measurement": "Selectivity index (SI)", "setting": "MDA-MB-231 cells", "value": 2.6}, {"measurement": "IC50", "setting": "MIA PaCa-2 cells", "value": "10 ± 1", "unit": "µM"}, {"measurement": "Selectivity index (SI)", "setting": "MIA PaCa-2 cells", "value": 1.1}, {"measurement": "IC50", "setting": "MCF-7 cells", "value": "34.3 ± 0.6", "unit": "µM"}, {"measurement": "Selectivity index (SI)", "setting": "MCF-7 cells", "value": 0.3}, {"measurement": "Time to full decomposition (no further changes in UV/vis spectra)", "setting": "[1]", "value": 72, "unit": "h"}, {"measurement": "IC50", "setting": "ARPE-19 cells", "value": "10.7 ± 0.4", "unit": "µM"}]}]}
